“Also recorded” adds a separate entry of the source.
How the values were obtained:
PTP1B = test system: PTP1B; set-up: method as in PMID 15258570; settings: allosteric inhibitor of PTP1B; cited from earlier work
[1] = molecular target: T1, Protein tyrosine phosphatase 1B (PTP1B, human recombinant) (Homo sapiens, UniProt P18031); assay: PTP1B inhibitory assay (inhibition of pNPP hydrolysis catalyzed by PTP1B); assay type: biochemical
T1 construct: purchased Biomol International LP (Plymouth Meeting, PA, USA)
T1 sequence (P18031 1-435): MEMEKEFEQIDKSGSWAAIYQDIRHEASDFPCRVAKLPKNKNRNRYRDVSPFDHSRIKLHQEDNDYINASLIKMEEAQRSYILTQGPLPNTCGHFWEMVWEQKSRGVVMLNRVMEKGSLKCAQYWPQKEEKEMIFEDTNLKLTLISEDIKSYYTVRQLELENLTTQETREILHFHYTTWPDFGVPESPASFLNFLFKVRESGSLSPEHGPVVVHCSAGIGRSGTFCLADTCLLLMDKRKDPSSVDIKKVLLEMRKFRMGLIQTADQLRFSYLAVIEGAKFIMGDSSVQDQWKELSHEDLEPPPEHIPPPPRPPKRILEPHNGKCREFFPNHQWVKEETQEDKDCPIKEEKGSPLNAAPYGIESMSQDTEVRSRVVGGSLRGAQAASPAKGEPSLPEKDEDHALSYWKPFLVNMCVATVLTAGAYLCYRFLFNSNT
Excerpt: (§1) Ethylenediaminetetraacetic acid, p-nitrophenyl phosphate (pNPP), and dimethylsulfoxide were purchased from Sigma-Aldrich Co. (St. Louis, MO, USA). Protein tyrosine phosphatase 1B (PTP1B, human recombinant) and dithiothreitol (DTT) were purchased from Biomol® International LP (Plymouth Meeting, PA, USA) and Bio-Rad Laboratories (Hercules, CA, USA), respectively. All chemicals and solvents used in the isolation and enzyme assays were of reagent grade and were purchased from commercial sources. TLC were performed on a precoated Merck Kiesel gel 60 F254 plates (20 × 20 cm, 0.25 mm) and RP-18 F254S plates (5 × 10 cm) (Merck, Darmstadt, Germany).
Inhibition of pNPP hydrolysis catalyzed by PTP1B was carried out by the method as described but with slight modification.

[2] = molecular target: T1, Protein tyrosine phosphatase 1B (PTP1B, human recombinant); assay: Enzyme kinetic analysis (Lineweaver-Burk and Dixon plots); assay type: biochemical; settings: for Ki: determined by Dixon plot; for Inhibition Type: determined by Lineweaver-Burk plot
Excerpt: Here, we employed Lineweaver-Burk and Dixon plots to determine the inhibition type and inhibition constant (Ki value) for each compound (Figure 2, Table 1).
as §1
The kinetic parameters were determined using Lineweaver-Burk double-reciprocal plots and the Dixon plot method at increasing substrate and compound concentrations. All measurements were measured in triplicate, and Sigma Plot 12.0 (SPCC Inc., Chicago, IL, USA) was used to calculate the experimental parameters.

Structure (SMILES): CC(C)=CCC/C(C)=C/CC/C(C)=C\Cc1c(O)cc(O)c(CC=C(C)C)c1-c1cc2ccc(O)cc2o1 [MB, morusalfuran B]
- IC50 [1]: 12 ± 0.75 µM
- Ki [2]: 2.84 µM
- Inhibition Type [2]: mixed-type inhibition; also recorded: mixed type inhibitor

Structure (SMILES): CC(C)=CCCC1(C)C=Cc2c(ccc3cc(-c4cc(O)cc(O)c4CC=C(C)C)oc23)O1 (centres unmarked) [MD2, mulberrofuran D2]
- IC50 [1]: 3.11 ± 0.1 µM
- times more potent than compound A ([1]; MD2 vs compound A, PTP1B inhibition): 7 times
- Ki [2]: 2.63 µM
- Inhibition Type [2]: non-competitive inhibition; also recorded: non-competitive inhibitor; also recorded: Noncompetitive

Structure (SMILES): CC(C)=CCC/C(C)=C/Cc1c(O)ccc2cc(-c3cc(O)cc(O)c3CC=C(C)C)oc12 [MD, mulberrofuran D]
- IC50 [1]: 11.6 ± 0.19 µM
- Ki [2]: 4.79 µM
- Inhibition Type [2]: mixed-type inhibition; also recorded: mixed type inhibitor

Structure (SMILES): C[C@@]12C=C(c3c(O)cc(-c4cc5ccc(O)cc5o4)cc3O)C[C@@H](C1)c1ccc(O)cc1O2 [MH, mulberrofuran H]
- IC50 [1]: 53.5 ± 12.5 µM

Structure (SMILES): COc1cc(O)cc(-c2cc3ccc(O)c(C/C=C(\C)CCC=C(C)C)c3o2)c1CC=C(C)C [SA, sanggenofuran A]
- IC50 [1]: 31.9 ± 2.98 µM
- reduction of activity (SA vs. MD) ([1]; replacement of C3′-OH with -OCH3, SA vs. MD): > 3 times

Reference: publication PMC6721227, “Insight into the PTP1B Inhibitory Activity of Arylbenzofurans: An In Vitro and In Silico Study” (Molecules, 2019)
